Measurements from PMC3985256, “Synthesis of Brominated 2-Phenitidine Derivatives as Valuable Inhibitors of Cholinesterases for the Treatment of Alzheimer’s Disease” (Iranian Journal of Pharmaceutical Research : IJPR, 2014).

What follows are molecules tested against acetylcholinesterase (AChE) (Homo sapiens, UniProt P22303) (assay: Acetylcholinesterase inhibition assay). Conditions: not given.
acetylcholinesterase (AChE), sequence (P22303 32-614): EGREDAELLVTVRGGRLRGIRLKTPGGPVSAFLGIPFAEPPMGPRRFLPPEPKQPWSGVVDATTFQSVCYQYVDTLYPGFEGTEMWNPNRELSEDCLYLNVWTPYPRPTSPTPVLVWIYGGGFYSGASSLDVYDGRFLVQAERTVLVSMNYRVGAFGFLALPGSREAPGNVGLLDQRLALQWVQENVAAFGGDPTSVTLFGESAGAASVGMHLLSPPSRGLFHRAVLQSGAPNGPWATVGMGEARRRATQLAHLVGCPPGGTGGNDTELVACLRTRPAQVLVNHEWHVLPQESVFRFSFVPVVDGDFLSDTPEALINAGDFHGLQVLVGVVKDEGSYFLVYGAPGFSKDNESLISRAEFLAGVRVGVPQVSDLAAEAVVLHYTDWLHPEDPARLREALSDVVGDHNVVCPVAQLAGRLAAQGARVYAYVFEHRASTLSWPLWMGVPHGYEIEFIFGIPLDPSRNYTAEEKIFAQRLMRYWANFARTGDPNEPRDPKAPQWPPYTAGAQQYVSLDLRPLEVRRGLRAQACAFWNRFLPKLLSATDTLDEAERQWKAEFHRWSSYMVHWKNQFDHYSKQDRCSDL
Assay type: biochemical
Protocol: The AChE inhibition activity was performed according to the reported method ([14]) with slight modifications. Total volume of the reaction mixture was 100 μL. It contained 60 μL Na2HPO4 buffer with concentration of 50 mM and pH 7.7. Ten μL test compound (0.5 mM well^-1) was added, followed by the addition of 10 μL (0.005 unit well^-1) enzyme. The contents were mixed and pre-read at 405 nm. Then contents were pre-incubated for 10 min at 37 °C. The reaction was initiated by the addition of 10 μL of 0.5 mM well^-1 substrate (acetylthiocholine iodide), followed by the addition of 10 μL DTNB (0.5 mM well^-1). After 15 min of incubation at 37 °C, absorbance was measured at 405 nm. Synergy HT (BioTek, USA) 96-well plate reader was used in all experiments. All experiments were carried out with their respective controls in triplicate. […] The percent inhibition was calculated by the help of following equation )[19] (.
(§1) Inhibition %=Control-Test/Control×100
(§2) IC50 values (concentration at which there is 50% enzyme inhibition) of compounds were calculated using EZ-Fit Enzyme kinetics software (Perella Scientific Inc. Amherst, USA).
Work on `CCOc1cc(Br)c(Br)cc1N(CCBr)S(=O)(=O)c1ccccc1` [Compound 6d] yielded an IC50 of 131.9 ± 0.16 µM.

Same assay, conditions: 0.5 mM; n = 3, mean ± sem; read-out: Acetylcholinestrase (AChE) inhibition (%) at 0.5 mM
`CCOc1cc(Br)c(Br)cc1N(Cc1cccc(Cl)c1)S(=O)(=O)c1ccccc1` [Compound 6i] gave an inhibition at 500 µM of 82.54 ± 0.36%.
`CCOc1cc(Br)c(Br)cc1N(Cc1ccccc1)S(=O)(=O)c1ccccc1` [Compound 6e, N-Benzyl-N-(4,5-dibromo-2-ethoxyphenyl)benzenesulfonamide] gave an inhibition at 500 µM of 79.27 ± 0.63%.
With `CCOc1cc(Br)c(Br)cc1N(CC)S(=O)(=O)c1ccccc1` [Compound 6a, N-Ethyl-N-(4,5-dibromo-2-ethoxyphenyl)benzenesulfonamide] the inhibition at 500 µM was 28.9 ± 0.31%.
Molecule `CCOc1cc(Br)c(Br)cc1N(CCCc1ccccc1)S(=O)(=O)c1ccccc1` [Compound 6g, N-Phenylpropyl-N-(4,5-dibromo-2-ethoxyphenyl)benzenesulfonamide] has an inhibition at 500 µM of 77.18 ± 0.33%.
In the case of `CCOc1cc(Br)c(Br)cc1N(Cc1ccc(F)cc1)S(=O)(=O)c1ccccc1` [Compound 6j], the inhibition at 500 µM is reported as 81.45 ± 0.12%.
For `CCOc1cc(Br)c(Br)cc1N(Cc1ccc(Cl)cc1)S(=O)(=O)c1ccccc1` [Compound 6l], the inhibition at 500 µM was 82.94 ± 0.15%.

Same assay, conditions: n = 3, mean ± sem
`CCOc1cc(Br)c(Br)cc1N(CC)S(=O)(=O)c1ccccc1` [Compound 6a, N-Ethyl-N-(4,5-dibromo-2-ethoxyphenyl)benzenesulfonamide] was tested, and the “Acetylcholinestrase (AChE) (IC50)” value was “NIL”.

Same assay, conditions: n = 3, mean ± sem; read-out: Acetylcholinestrase (AChE) (IC50)
With `CCOc1cc(Br)c(Br)cc1N(Cc1cccc(Cl)c1)S(=O)(=O)c1ccccc1` [Compound 6i] the IC50 was 73.9 ± 0.87 µM.
`CCOc1cc(Br)c(Br)cc1N(Cc1ccccc1)S(=O)(=O)c1ccccc1` [Compound 6e, N-Benzyl-N-(4,5-dibromo-2-ethoxyphenyl)benzenesulfonamide] gave an IC50 of 88.21 ± 0.17 µM.
Molecule `CCOc1cc(Br)c(Br)cc1N(CCCc1ccccc1)S(=O)(=O)c1ccccc1` [Compound 6g, N-Phenylpropyl-N-(4,5-dibromo-2-ethoxyphenyl)benzenesulfonamide] has an IC50 of 158.41 ± 0.11 µM.
Molecule `CCOc1cc(Br)c(Br)cc1N(Cc1ccc(F)cc1)S(=O)(=O)c1ccccc1` [Compound 6j] has an IC50 of 71.31 ± 0.09 µM.
`CCOc1cc(Br)c(Br)cc1N(Cc1ccc(Cl)cc1)S(=O)(=O)c1ccccc1` [Compound 6l] gave an IC50 of 126.61 ± 0.02 µM.

Same assay, conditions: read-out: Acetylcholinestrase (AChE) inhibition (%) at 0.5 mM
`CCOc1cc(Br)c(Br)cc1N(CCBr)S(=O)(=O)c1ccccc1` [Compound 6d] showed an inhibition at 500 µM of 73.21 ± 0.71%.

What follows are molecules tested against T1, lipoxygenase (LOX) (Glycine max, UniProt P08170) (assay: Lipoxygenase inhibition assay). Conditions: 0.5 mM; n = 3, mean ± sem.
T1 sequence (P08170 1-839): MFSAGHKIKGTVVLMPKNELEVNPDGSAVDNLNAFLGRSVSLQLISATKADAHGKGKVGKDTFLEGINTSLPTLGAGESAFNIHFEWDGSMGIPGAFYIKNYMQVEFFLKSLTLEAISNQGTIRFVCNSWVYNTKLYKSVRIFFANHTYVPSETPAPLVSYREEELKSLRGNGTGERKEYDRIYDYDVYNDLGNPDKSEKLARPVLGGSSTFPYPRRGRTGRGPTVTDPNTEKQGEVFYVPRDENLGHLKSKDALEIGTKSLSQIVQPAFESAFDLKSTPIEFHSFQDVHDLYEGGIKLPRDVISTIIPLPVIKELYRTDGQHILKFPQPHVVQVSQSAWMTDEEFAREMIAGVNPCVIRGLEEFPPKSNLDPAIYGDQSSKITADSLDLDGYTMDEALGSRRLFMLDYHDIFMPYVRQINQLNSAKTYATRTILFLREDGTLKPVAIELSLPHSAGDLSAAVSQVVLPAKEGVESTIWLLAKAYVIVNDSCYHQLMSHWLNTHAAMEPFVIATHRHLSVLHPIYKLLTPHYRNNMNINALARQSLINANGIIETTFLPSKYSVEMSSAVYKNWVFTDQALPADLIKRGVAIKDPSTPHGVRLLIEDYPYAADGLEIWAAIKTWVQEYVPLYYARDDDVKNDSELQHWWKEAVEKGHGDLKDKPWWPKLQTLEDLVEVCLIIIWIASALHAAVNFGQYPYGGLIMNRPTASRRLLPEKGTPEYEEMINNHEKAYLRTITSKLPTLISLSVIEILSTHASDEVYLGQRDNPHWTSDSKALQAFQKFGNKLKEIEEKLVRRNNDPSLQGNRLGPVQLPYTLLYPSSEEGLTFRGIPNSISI
Assay type: biochemical
Protocol: Lipoxygenase activity was assayed according to the reported method ([18]-[20]) but with slight modifications. A total volume of 200 μL assay mixture contained 150 μL sodium phosphate buffer (100 mM, pH 8.0), 10 μL test compound and 15 μL purified lipoxygenase enzyme (Sigma, USA). The contents were mixed and pre-read at 234 nm and pre-incubated for 10 min at 25 °C. The reaction was initiated by the addition of 25 μL substrate solution. The change in absorbance was observed after 6 min at 234 nm. Synergy HT (BioTek, USA) 96-well plate reader was used in all experiments. All reactions were performed in triplicates. The positive and negative controls were included in the assay. Baicalein (0.5 mM well^-1) was used as a positive control. The percentage inhibition was calculated by formula as follows.
For `CCOc1cc(Br)c(Br)cc1N(Cc1cccc(Cl)c1)S(=O)(=O)c1ccccc1` [Compound 6i], the inhibition at 500 µM was 49.6 ± 0.64%.
In the case of `CCOc1cc(Br)c(Br)cc1N(Cc1ccccc1)S(=O)(=O)c1ccccc1` [Compound 6e, N-Benzyl-N-(4,5-dibromo-2-ethoxyphenyl)benzenesulfonamide], the inhibition at 500 µM is reported as 31.29 ± 0.18%.
In the case of `CCOc1cc(Br)c(Br)cc1N(CC)S(=O)(=O)c1ccccc1` [Compound 6a, N-Ethyl-N-(4,5-dibromo-2-ethoxyphenyl)benzenesulfonamide], the inhibition at 500 µM is reported as 81.75 ± 0.71%.
Work on `CCOc1cc(Br)c(Br)cc1N(CCCc1ccccc1)S(=O)(=O)c1ccccc1` [Compound 6g, N-Phenylpropyl-N-(4,5-dibromo-2-ethoxyphenyl)benzenesulfonamide] yielded an inhibition at 500 µM of 75.21 ± 0.11%.
Molecule `CCOc1cc(Br)c(Br)cc1N(Cc1ccc(F)cc1)S(=O)(=O)c1ccccc1` [Compound 6j] has an inhibition at 500 µM of 51.23 ± 0.31%.
`CCOc1cc(Br)c(Br)cc1N(Cc1ccc(Cl)cc1)S(=O)(=O)c1ccccc1` [Compound 6l] was tested, and the inhibition at 500 µM was 55.5 ± 0.84%.
`CCOc1cc(Br)c(Br)cc1N(CCBr)S(=O)(=O)c1ccccc1` [Compound 6d] was tested, and the inhibition at 500 µM was 83.95 ± 0.22%.

Same assay, conditions: n = 3, mean ± sem
In the case of `CCOc1cc(Br)c(Br)cc1N(Cc1cccc(Cl)c1)S(=O)(=O)c1ccccc1` [Compound 6i], the “Lipoxygenase (LOX) (IC50)” value is reported as “NIL”.
In the case of `CCOc1cc(Br)c(Br)cc1N(Cc1ccccc1)S(=O)(=O)c1ccccc1` [Compound 6e, N-Benzyl-N-(4,5-dibromo-2-ethoxyphenyl)benzenesulfonamide], the “Lipoxygenase (LOX) (IC50)” value is reported as “NIL”.

These molecules were tested against butyrylcholinesterase (BChE) (Homo sapiens, UniProt P06276) (assay: Butyrylcholinesterase inhibition assay). Conditions: not given.
butyrylcholinesterase (BChE), sequence (P06276 29-602): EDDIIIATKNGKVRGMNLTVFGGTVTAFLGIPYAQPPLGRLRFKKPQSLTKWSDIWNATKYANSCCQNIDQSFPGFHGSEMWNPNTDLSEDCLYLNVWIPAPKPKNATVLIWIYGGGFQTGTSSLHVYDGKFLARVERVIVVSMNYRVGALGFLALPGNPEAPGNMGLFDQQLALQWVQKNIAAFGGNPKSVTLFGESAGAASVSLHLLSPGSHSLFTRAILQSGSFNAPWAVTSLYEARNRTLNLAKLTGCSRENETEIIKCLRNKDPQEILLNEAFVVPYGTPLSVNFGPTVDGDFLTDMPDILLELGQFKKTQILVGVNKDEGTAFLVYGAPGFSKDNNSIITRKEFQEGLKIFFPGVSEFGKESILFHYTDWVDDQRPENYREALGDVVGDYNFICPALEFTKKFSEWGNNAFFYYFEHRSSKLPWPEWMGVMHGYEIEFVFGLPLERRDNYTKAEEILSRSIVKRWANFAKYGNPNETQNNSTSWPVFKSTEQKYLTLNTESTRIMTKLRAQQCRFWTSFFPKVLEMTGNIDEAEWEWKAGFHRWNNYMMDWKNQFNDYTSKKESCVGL
Assay type: biochemical
Protocol: The BChE inhibition activity was performed according to the reported method ([14],[17]) with slight modifications. Total volume of the reaction mixture was 100 μL containing 60 μL, Na2HPO4 buffer, 50 mM and pH 7.7. Ten μL test compound 0.5 mM well^-1, followed by the addition of 10 μL (0. 5 unit well^-1) BChE. The contents were mixed and pre-read at 405 nm. Then contents were pre-incubated for 10 min at 37 °C. The reaction was initiated by the addition of 10 μL of 0.5 mM well^-1 substrate (butyrylthiocholine bromide), followed by the addition of 10 μL DTNB (0.5 mM well^-1). After 15 min of incubation at 37 °C, absorbance was measured at 405 nm. Synergy HT (BioTek, USA) 96-well plate reader was used in all experiments. All experiments were carried out with their respective controls in triplicate. […] The percent inhibition was calculated by the help of following equation.
as §1, §2
`CCOc1cc(Br)c(Br)cc1N(CCBr)S(=O)(=O)c1ccccc1` [Compound 6d] was tested, and the IC50 was 45.31 ± 0.17 µM.

Same assay, conditions: 0.5 mM; n = 3, mean ± sem; read-out: Butyrylcholinesterase (BChE) inhibition (%) at 0.5 mM
`CCOc1cc(Br)c(Br)cc1N(Cc1cccc(Cl)c1)S(=O)(=O)c1ccccc1` [Compound 6i] was tested, and the inhibition at 500 µM was 91.78 ± 0.33%.
With `CCOc1cc(Br)c(Br)cc1N(Cc1ccccc1)S(=O)(=O)c1ccccc1` [Compound 6e, N-Benzyl-N-(4,5-dibromo-2-ethoxyphenyl)benzenesulfonamide] the inhibition at 500 µM was 85.92 ± 0.28%.
For `CCOc1cc(Br)c(Br)cc1N(CC)S(=O)(=O)c1ccccc1` [Compound 6a, N-Ethyl-N-(4,5-dibromo-2-ethoxyphenyl)benzenesulfonamide], the inhibition at 500 µM was 85.33 ± 0.26%.
In the case of `CCOc1cc(Br)c(Br)cc1N(CCCc1ccccc1)S(=O)(=O)c1ccccc1` [Compound 6g, N-Phenylpropyl-N-(4,5-dibromo-2-ethoxyphenyl)benzenesulfonamide], the inhibition at 500 µM is reported as 90.14 ± 0.77%.
Work on `CCOc1cc(Br)c(Br)cc1N(Cc1ccc(F)cc1)S(=O)(=O)c1ccccc1` [Compound 6j] yielded an inhibition at 500 µM of 87.21 ± 0.31%.
For `CCOc1cc(Br)c(Br)cc1N(Cc1ccc(Cl)cc1)S(=O)(=O)c1ccccc1` [Compound 6l], the inhibition at 500 µM was 66.31 ± 0.11%.

Same assay, conditions: n = 3, mean ± sem; read-out: Butyrylcholinesterase (BChE) (IC50)
`CCOc1cc(Br)c(Br)cc1N(Cc1cccc(Cl)c1)S(=O)(=O)c1ccccc1` [Compound 6i] showed an IC50 of 57.11 ± 0.46 µM.
`CCOc1cc(Br)c(Br)cc1N(Cc1ccccc1)S(=O)(=O)c1ccccc1` [Compound 6e, N-Benzyl-N-(4,5-dibromo-2-ethoxyphenyl)benzenesulfonamide] showed an IC50 of 58.71 ± 0.08 µM.
For `CCOc1cc(Br)c(Br)cc1N(CC)S(=O)(=O)c1ccccc1` [Compound 6a, N-Ethyl-N-(4,5-dibromo-2-ethoxyphenyl)benzenesulfonamide], the IC50 was 54.9 ± 0.85 µM.
With `CCOc1cc(Br)c(Br)cc1N(CCCc1ccccc1)S(=O)(=O)c1ccccc1` [Compound 6g, N-Phenylpropyl-N-(4,5-dibromo-2-ethoxyphenyl)benzenesulfonamide] the IC50 was 57.5 ± 0.63 µM.
Molecule `CCOc1cc(Br)c(Br)cc1N(Cc1ccc(F)cc1)S(=O)(=O)c1ccccc1` [Compound 6j] has an IC50 of 60.2 ± 0.66 µM.
In the case of `CCOc1cc(Br)c(Br)cc1N(Cc1ccc(Cl)cc1)S(=O)(=O)c1ccccc1` [Compound 6l], the IC50 is reported as 190.31 ± 0.17 µM.

Same assay, conditions: read-out: Butyrylcholinesterase (BChE) inhibition (%) at 0.5 mM
Molecule `CCOc1cc(Br)c(Br)cc1N(CCBr)S(=O)(=O)c1ccccc1` [Compound 6d] has an inhibition at 500 µM of 87.2 ± 0.96%.
